Assay results published in patent EP2070529B1, “Medical use of 3-(2,2,2-trimethylhydrazinium) propionate orotate” (Grindeks, a joint stock company, priority 2007, dated 2009).
Values joined by “and” are separate entries in the source; they are usually repeats but may differ in a detail not shown here. Equal entries are not always repeated. Marks after values point to notes of the source that are not given here.

Key:
isolated rat heart = test: Isolated rat heart infarction model; format: in vivo, Wistar rats; details: by mouth for 14 days (Meldonium dihydrate 120 mg/kg, orotic acid 100mg/kg, Meldonium orotate 200 mg/kg), 60 minutes occlusion, 150 minute reperfusion
Experimental: Experiments were conducted on adult male Wistar rats with initial weight of 280-310g. During the experiment, the animals were kept in Standard crates in groups of 8. The feed was a standardized diet R70 (LABFOR, Lactamin AB, Sweden). The room temperature was kept at 21-23°C, relative humidity at 65±10%, 12 hour light/darkness cycle.
Rats weighing approximately 300 g were randomly divided in 4 groups. The first group received saline by mouth (control group), the second group 120 mg/kg Meldonium dihydrate, the third orotic acid 100mg/kg and the fourth group 200 mg/kg Meldonium orotate by mouth for 14 days.
Rats were anesthetized with sodium pentobarbital (60 mg/kg) and heparin (1 IU/g) was administrated concomitantly. Hearts were excised and retrogradely perfused via aorta at a constant pressure of 50 mm Hg, with oxygenated Krebs-Henseleit buffer ( content in mmol/L: NaCl 118, Ca Cl2 2.52, MgCl2 1.64, NaHCO3 24.88, KH2PO4 1.18, glucose 10.0, EDTA 0.05) pH 7.3-7.5 at 37°C.
A 5-0 polypropylene suture (Surgipro II, Syneture) was passed under the left anterior descending coronary artery and threaded through a small plastic tube to permit reversible occlusion of the coronart artery. Coronary flow was measured using an ultrasound flow detector (HSE) and PowerLab 8/30 system from ADlnstruments.
Hearts were adapted for 20 minutes and occlusion was performed for 60 minutes by constricting threads through a plastic tube.
At the end of the 150 minute reperfusion, the left anterior descending coronary artery was relegated and the risk zone was delineated with 0.1 % methylene blue solution in Krebs-Henseleit buffer infused via the aorta root. Hearts were sectioned transversely from the apex to the base of 2 mm thickness and incubated in 1 % triphenyl-tetrazolium chloride in phosphate buffer (pH 7.4, 37°C) for 10 minutes to stain viable tissue red and necrotic tissue white. […] Computerized planemetric analysis of photographs was performed using Image-Pro Plus 4.5.1 software to determine the area at risk (AR) and area of necrosis (AN) expressed as percentage of the left ventricle (LV). […]

rats = test: Acute arrhythmia induced by calcium chloride, lethality; format: in vivo, Wistar rats; details: deaths/rats per group (8 rats), p.o. 14 days (Meldonium dihydrate 120 mg/kg, Meldonium orotate 204 mg/kg), last dose 24 h before, CaCl2 185 mg/kg, ECG until 10 minutes after
Experimental: Experiment was conducted on adult male Wistar rats. During the experiment, the animals were kept in Standard crates in groups of 8. The feed was a standardized diet R3 (LABFOR, Lactamin AB, Sweden). The room temperature was kept at 21-23°C, relative humidity at 65±10%, 12 hour light/darkness cycle. The experimental procedures were carried out in accordance with the guidelines of the European Community and local laws and policies and were approved by Latvian Animal Protection Ethical Committee, the Food and Veterinary Service.
An experimental acute arrhythmia was caused by introducing in rats solution of Calcium chloride.
Rats weighing 240-250 g randomized were divided into 3 groups, where in all groups there were 8 rats. During all 14 days rats got experimental preparations: Meldonium dihydrate or Meldonium orotate. The first group of 8 rats received drinking water (control group), the second group of 8 rats received Meldonium dihydrate (120 mg/kg p.o.) and the third group of 8 rats received Meldonium orotate (204 mg/kg p.o.). The last dose of experimental preparations animals got 24 h before the experiment. […] When narcosis started to influence to rat, there was cannulated left femoral vena for introducing of 10 % CaCl2 and after that there was connected ECG's recoding device (ADlnstrument PowerLab systems) and read ECG from the II lead. […]

Structure (SMILES)	Infarct size, % of control (isolated rat heart; IS = AN/AR x 100, dihydrate)	Fatal outcome (rats; dihydrate)	Infarct size, % of control (isolated rat heart; IS = AN/AR x 100)	Fatal outcome (rats)
C[N+](C)(C)NCCC(=O)[O-] [Meldonium dihydrate, 3-(2,2,2-Trimethylhydrazinium) propionate dihydrate]	76.9±5.9 % of control	2/8	–	–
C[N+](C)(C)NCCC(=O)[O-] [Meldonium orotate, 3-(2,2,2-trimethylhydrazinium) propionate orotate]	–	–	49.1±6.1***^,#,& % of control	no lethal cases and 0/8
O=C(O)c1cc(=O)[nH]c(=O)[nH]1 [Orotic acid]	–	–	75.0±7.7 % of control	–
